Assay [1] has as its system Sphaerotheca fulginea. The settings on record: 150 grams per hectare; cucumber cultivar Bush Champion; scored seven days after inoculation.
The test system of assay [2] is Colletotrichum lagenarium. The settings on record: 150 grams per hectare; cucumber cultivar Bush Champion.
In assay [3] the test system is Puccinia recondita (f sp. tritici). The settings on record: 150 grams per hectare; wheat cultivar Fielder; evaluated after 12 days.
Assay [4] relates to Pseudoperonospora cubensis. The settings on record: 9 grams per hectare; detached cucumber leaf; five days.

As to `CNC(=O)C(=NOC)c1ccccc1CON=C(C)C1CC1(C)c1ccccc1` (stereo not drawn) [Compound 3.11, (E,E and Z,E)-N-Methyl 2-[2-((trans-1-(2-phenyl-2-methyl-cyclopropyl)ethylidene)aminooxymethyl)phenyl]-2-methoxyiminoacetamide], the “percent disease control, cucumber powdery mildew” value in assay [1] worked out at 100%. Moreover, the “percent disease control, cucumber anthracnose” value in assay [2] is recorded as 100%. Moreover, in assay [3], the “percent disease control, wheat leaf rust” value is 100%.

In the case of `CNC(=O)/C(=N/OC)c1ccccc1CO/N=C(\C)C1CC1(C)c1ccc(Cl)cc1` (centres unmarked) [Compound 3.14A, (E,E)-N-Methyl 2-[2-((1-(2-(4′-chlorophenyl)-2-methylcyclopropyl)ethylidene)aminooxymethyl)phenyl]-2-methoxyiminoacetamide], the “percent disease control, cucumber powdery mildew” value in assay [1] is on record as 100%. Further, the “percent disease control, cucumber anthracnose” value in assay [2] turned out to be 100%. Moreover, the “percent disease control, wheat leaf rust” value in assay [3] was found to be 100%.

Regarding `CON=C(C(=O)OC)c1ccccc1CON=C(C)C1CC1c1c(Cl)cccc1Cl` (stereo not drawn) [Compound 8.1, Methyl 2-[2-((trans-1-(2-(2′,6′-dichlorophenyl)cyclopropyl)ethylidene)aminooxymethyl)phenyl]-2-methoxyiminoacetate], the “percent disease control, cucumber powdery mildew” value in assay [1] stood at 100%.

In the case of `CNC(=O)C(=NOC)c1ccccc1CON=C(C)C1CC1c1c(Cl)cccc1Cl` (stereo not drawn) [Compound 9.1, N-Methyl 2-[2-((trans-1-(2-(2′,6′-dichlorophenyl)cyclopropyl)ethylidene)aminooxymethyl)phenyl]-2-methoxyiminoacetamide], the “percent disease control, cucumber powdery mildew” value in assay [1] is recorded as 100%. Further, the “percent disease control, cucumber anthracnose” value in assay [2] is 100%. In addition, the “percent disease control, wheat leaf rust” value in assay [3] was determined as 100%.

Turning to `CNC(=O)C(=NOC)c1ccccc1CON=C(C)C1CC1c1c(F)cccc1F` (stereo not drawn) [Compound 9.7A, N-Methyl 2-[2-((trans-1-(2-(2′,6′-difluorophenyl)cyclopropyl)ethylidene)aminooxymethyl)phenyl]-2-methoxyiminoacetamide], in assay [1], the “percent disease control, cucumber powdery mildew” value was found to be 100%. Besides, in assay [2], the “percent disease control, cucumber anthracnose” value is 100%. In addition, in assay [3], the “percent disease control, wheat leaf rust” value is given as 100%. The “percent disease control, cucumber downy mildew” value in assay [4] is reported as 100%.

The record behind these values is patent US6348627B1 (priority 1999, dated 2002).
